# Assay results reported in patent publication US5770201A, “HA-2 antigenic peptide” (Rijsuniversiteit Te Leiden, priority 1994, dated 1998).
# Where no end group is shown, it is not given here.
# Tested on: T2 cell line for lysis by clone 5H17
# Experiment: 51Cr release assay: peptide sensitization of T2 for lysis by HA-2 specific CTL clone 5H17
# Type: cell-based, human
# Settings: T2 cells
sequence,measurement,value
"YXGEVXVSV (X: residue not identified in the source) [synthetic peptide mixture, X stands for L or I]",HA-2 specific sensitizing CTL activity (lysis of T2),resulted in lysis of T2
